Paper PMC8294059, “Identification and Immune Assessment of T Cell Epitopes in Five Plasmodium falciparum Blood Stage Antigens to Facilitate Vaccine Candidate Selection and Optimization” (Frontiers in Immunology, 2021)
Read-outs that look alike come from different tables or passages of the source. Where a SMILES comes first, the peptide text is derived from it.

Legend:
Assay in all cases: biochemical
Type in all cases: binding
[1] = target: T1, HLA-DRB1*0101 (Homo sapiens, UniProt P01903+P01911, A100R/D57E/F55L/F60I/F76Y/I96L/L162R/M171V/P40L/Q125E/R42F/V115G/Y59C); details: binding inhibition assay; NB = non-binder (no dose-dependent inhibition); read-out: DRB1*0101 IC50
T1 construct: purchased
Description: (§1) The binding assay conducted by EpiVax yields an indirect measure of peptide-MHC affinity as it utilizes a competition assay format per the methodology described in Steere et al. ([35]). […] Post incubation, the mixtures are moved to a 96-well plate coated with anti-HLA-DR antibody to capture HLA-peptide complexes. Time-resolved fluorescence measurement of the bound labeled reference peptide complex present in each mixture is detected with a europium-linked probe via fluorescent spectrophotometry using a SpectraMax M5 system. HLA binding affinity of each test peptide is expressed as the percent inhibition of reference peptide binding. Percent inhibition values (across the test peptide titration range) are used to calculate the half maximal inhibitory concentration (IC50) of each test peptide. For these studies, test peptides were assessed using a range of final concentrations from 100,000 nM to 100 nM. The panel of commercially-available HLA-DRB1 allele monomers used includes: *0101, *0301, *0401, *0701, *0801, *1101, *1301 and *1501. EpiVax established HLA-DRB1 binding affinity cutoffs were used to rank the IC50 values.
(§2) In vitro HLA binding assays (step 2 of workflow shown in Figure 1 ) were carried out with the synthesized peptides to verify the EpiMatrix outputs and provide a measure of accuracy for comparing in silico-predicted HLA-DRB1 allele binding to laboratory assessments of HLA-DRB1 allele binding. These assessments were conducted using a competition assay format whereby IC50 values were calculated based on the ability of the test peptide to compete with a labeled, high binding affinity reference peptide for HLA-DRB1 molecule binding. Sequences for the high affinity reference peptides and the negative control peptide, known not to bind any of the HLA-DRB1 molecules, are provided in Table S18 .

[2] = target: T2, HLA-DRB1*0401 (Homo sapiens, UniProt P01903+P01911, A100K/A169T/F76Y/I96L/K127E/L162R/M171V/N62H/P40V/Q125Y/R42H/S133A/S149N/S66Y/V115G/V209L/W38E); details: binding inhibition assay; NB = non-binder (no dose-dependent inhibition); read-out: DRB1*0401 IC50
T2 construct: purchased
Description: as §1, §2

[3] = target: HLA-DRB1*1301 (Homo sapiens, UniProt P01903+P01911, A100E/A169T/K41T/L162R/M171V/P40S/Q125H/Q178H/Q39Y/Q99D/R42S/S66N/T262R/W38E/Y61H); details: binding inhibition assay; NB = non-binder (no dose-dependent inhibition); read-out: DRB1*1301 IC50
Description: as §1, §2

[4] = target: T3, HLA-DRB1*1501 (Homo sapiens, UniProt P01903+P01911); details: binding inhibition assay; NB = non-binder (no dose-dependent inhibition); read-out: DRB1*1501 IC50
T3 construct: purchased
Description: as §1, §2

[5] = target: HLA-DRB1*0801 (Homo sapiens, UniProt P01903+P01911, A100R/A103L/A169T/D86S/F76Y/H45Y/I96F/K41T/L162R/M171V/P40S/Q125H/Q178H/Q39Y/Q99D/R218S/R42G/S66Y/V115G/W38E); details: binding inhibition assay; NB = non-binder (no dose-dependent inhibition); read-out: DRB1*0801 IC50
Description: as §1, §2

[6] = target: HLA-DRB1*1101 (Homo sapiens, UniProt P01903+P01911, A100R/A169T/A87E/I96F/K41T/L162R/M171V/P40S/Q125H/Q178H/Q39Y/Q99D/R42S/S66Y/T262R/V115G/W38E); details: binding inhibition assay; NB = non-binder (no dose-dependent inhibition); read-out: DRB1*1101 IC50
Chain of HLA-DRB1*1101 (P01903 26-254 limits assumed, other chains not shown): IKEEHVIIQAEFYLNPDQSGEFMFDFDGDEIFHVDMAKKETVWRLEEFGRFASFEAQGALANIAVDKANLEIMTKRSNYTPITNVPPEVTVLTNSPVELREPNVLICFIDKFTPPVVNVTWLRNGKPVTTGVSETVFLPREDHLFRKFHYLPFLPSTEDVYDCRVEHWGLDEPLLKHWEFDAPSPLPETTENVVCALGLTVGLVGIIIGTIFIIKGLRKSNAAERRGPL
Description: as §1, §2

[7] = target: HLA-DRB1*0701 (Homo sapiens, UniProt P01903+P01911, A100R/A102G/A103Q/D57E/D86V/E43K/F76Y/K127E/L162R/M171V/P40G/Q125H/Q99D/R33Q/R42Y/R54Q/S133A/S66F/T210M/V115G/Y107V/Y59L/Y89S); details: binding inhibition assay; NB = non-binder (no dose-dependent inhibition); read-out: DRB1*0701 IC50
Description: as §1, §2

[8] = target: HLA-A*0101 (Homo sapiens, UniProt P04439, A114D/A174V/A182V/D101N/D185E/E176A/E190D/L180R/Q94H/R68K/S129P/T187R/V100A/V91M/W191G)
Description: A cell-free class I HLA binding assay that allows for in vitro quantification of peptide-HLA binding affinity in a competition format was used. In this assay, a fluorescently labeled, high binding, control peptide is loaded onto 384-well ½-area plates along with unlabeled experimental peptides. To remove endogenous peptides and render the HLA A and B molecules receptive to binding, HLA is heated at 53°C for 15 minutes and immediately added to the assay. The mixture is then allowed to stand for three days. Once the mixture has reached steady equilibrium (at 72 hours), displacement of the high binding control peptide is measured through fluorescence polarization. Binding of experimental peptides is expressed as the percent inhibition of the labeled control peptide (experimental fluorescence / control fluorescence, multiplied by 100). The percent inhibition values for each experimental peptide (across a range of molar concentrations) are used to calculate the concentration which inhibits 50% of the labeled control peptide’s specific binding. This value is referred to as the peptide’s IC50.

[9] = allele A*0101, fluorescence polarization competition, read-out: IC50 (nM), in vitro HLA binding affinity
[10] = allele A*0101, fluorescence polarization competition

`CC[C@H](C)[C@H](NC(=O)[C@H](CC(=O)O)NC(=O)[C@H](CC(C)C)NC(=O)[C@H](CCCCN)NC(=O)[C@H](CC(N)=O)NC(=O)[C@H](CCC(=O)O)NC(C)=O)C(=O)N[C@@H](CC(C)C)C(=O)N[C@@H](CC(N)=O)C(=O)N[C@@H](CC(N)=O)C(=O)N[C@@H](CO)C(=O)N[C@@H](CCCCN)C(=O)N[C@@H](Cc1ccccc1)C(=O)N[C@@H](CC(N)=O)C(=O)N[C@@H](CCCCN)C(=O)N[C@@H](CCCNC(=N)N)C(=O)N[C@@H](Cc1c[nH]c2ccccc12)C(=O)N[C@@H](CCCCN)C(N)=O` [EBA175_002] (Ac-ENKLDILNNSKFNKRWK-NH2) gave an IC50 [1] of 11.9 µM, an IC50 [2] greater than 100 µM and an IC50 [3] of 14.2 µM. For the same compound, the IC50 [4] was 13.9 µM.

Work on `CC[C@H](C)[C@H](NC(=O)[C@H](Cc1ccccc1)NC(=O)[C@H](Cc1c[nH]cn1)NC(=O)[C@H](CC(=O)O)NC(C)=O)C(=O)N[C@@H](CCC(=O)O)C(=O)N[C@@H](C)C(=O)N[C@@H](CO)C(=O)N[C@@H](CCCCN)C(=O)N[C@@H](CCCCN)C(=O)N[C@@H](CCC(=O)O)C(=O)N[C@@H](CO)C(=O)N[C@@H](CCC(N)=O)C(=O)N[C@@H](CC(C)C)C(=O)N[C@@H](CC(C)C)C(N)=O` [EBA175_006] (Ac-DHFIEASKKESQLL-NH2) yielded an IC50 [1] of 6.63 µM, an IC50 [2] greater than 100 µM and an IC50 [5] of 1.76 µM. The IC50 [6] was 2.87 µM and the IC50 [3] was 74.6 µM.

In the case of `CSCC[C@H](NC(=O)[C@@H](NC(=O)[C@H](Cc1c[nH]cn1)NC(=O)[C@H](Cc1ccccc1)NC(=O)CNC(=O)[C@H](Cc1c[nH]cn1)NC(=O)[C@H](CCCCN)NC(C)=O)[C@@H](C)O)C(=O)N[C@@H](CC(N)=O)C(=O)N[C@@H](CC(N)=O)C(=O)N[C@@H](CC(C)C)C(=O)N[C@@H](Cc1c[nH]cn1)C(=O)NCC(=O)N[C@@H](CC(=O)O)C(=O)NCC(=O)N[C@H](C(=O)N[C@@H](CO)C(=O)N[C@@H](CCC(=O)O)C(N)=O)C(C)C` [EBA175_016] (Ac-KHGFHTMNNLHGDGVSE-NH2), the IC50 [1] is reported as 0.16 µM, the IC50 [2] is reported as 0.458 µM and the IC50 [6] is reported as 8.62 µM. It also gave an IC50 [3] greater than 100 µM and an IC50 [4] of 79 µM.

`CC[C@H](C)[C@H](NC(=O)[C@H](Cc1ccc(O)cc1)NC(=O)[C@@H](NC(=O)[C@H](CO)NC(=O)[C@H](Cc1c[nH]cn1)NC(C)=O)[C@@H](C)O)C(=O)N[C@@H](CCCCN)C(=O)N[C@@H](CO)C(=O)N[C@@H](Cc1ccc(O)cc1)C(=O)N[C@@H](CC(C)C)C(=O)N[C@@H](CC(N)=O)C(=O)N[C@H](C(=O)N[C@@H](CC(N)=O)C(=O)N[C@H](C(=O)N[C@@H](CC(N)=O)C(=O)N[C@@H](CC(=O)O)C(=O)NCC(=O)N[C@@H](CC(C)C)C(=O)N[C@@H](CCCCN)C(=O)N[C@@H](Cc1ccc(O)cc1)C(N)=O)C(C)C)[C@@H](C)O` [RH5_003] (Ac-HSTYIKSYLNTNVNDGLKY-NH2) was tested, and the IC50 [1] was 0.282 µM, the IC50 [2] was 7.45 µM and the IC50 [7] was 58.5 µM. The IC50 [6] was 96.5 µM, the IC50 [3] was 20.1 µM and the IC50 [4] was 0.004 µM.

With `C[C@@H](O)[C@H](NC(=O)[C@@H](N)CC(=O)O)C(=O)N[C@@H](CC(=O)O)C(=O)N[C@@H](CO)C(=O)N[C@@H](CC(N)=O)C(=O)N[C@@H](Cc1c[nH]cn1)C(=O)N[C@H](C(=O)N1CCC[C@H]1C(=O)N[C@@H](CO)C(=O)N[C@@H](CC(N)=O)C(=O)O)[C@@H](C)O` [RH5_280] (H-DTDSNHTPSN-OH) the IC50 [8] was 5880 nM.

`CC[C@H](C)[C@H](NC(=O)CNC(=O)[C@H](CC(N)=O)NC(=O)[C@@H](NC(=O)[C@@H](N)CC(N)=O)[C@@H](C)O)C(=O)N[C@@H](CCCNC(=N)N)C(=O)N[C@@H](Cc1ccc(O)cc1)C(=O)N[C@@H](Cc1c[nH]cn1)C(=O)N[C@@H](Cc1ccc(O)cc1)C(=O)O` [RH5_352] (H-NTNGIRYHY-OH) gave an IC50 [8, 9] of 4380 nM.

Work on `CC[C@H](C)[C@H](NC(=O)[C@H](Cc1ccccc1)NC(=O)[C@H](CCCCN)NC(=O)[C@@H](NC(=O)[C@@H](NC(=O)[C@H](CC(=O)O)NC(=O)[C@@H](NC(=O)[C@@H](N)Cc1ccc(O)cc1)[C@@H](C)CC)[C@@H](C)O)[C@@H](C)CC)C(=O)N[C@@H](Cc1c[nH]cn1)C(=O)N[C@@H](CCCCN)C(=O)O` [RH5_406] (H-YIDTIKFIHK-OH) yielded an IC50 [8, 9] of 1510 nM.

With `CC[C@H](C)[C@H](NC(=O)[C@@H]1CCCN1C(=O)[C@@H](NC(=O)[C@H](CC(=O)O)NC(=O)[C@H](CC(N)=O)NC(=O)[C@@H](N)Cc1ccccc1)C(C)C)C(=O)N[C@@H](CCCCN)C(=O)N[C@@H](CCSC)C(=O)N[C@@H](CCC(=O)O)C(=O)N[C@@H](Cc1ccc(O)cc1)C(=O)O` [RH5_505] (H-FNDVPIKMEY-OH) the IC50 [8, 9] was 498 nM.

`CC(=O)N[C@@H](CCC(=O)O)C(=O)N[C@@H](CCC(=O)O)C(=O)NCC(=O)N[C@@H](Cc1ccc(O)cc1)C(=O)N[C@@H](CCCCN)C(=O)N[C@@H](CC(N)=O)C(=O)N[C@H](C(=O)N[C@@H](CCCCN)C(=O)NCC(=O)N[C@@H](CCCCN)C(=O)N[C@@H](CS)C(=O)N[C@H](C(=O)N1CCC[C@H]1C(=O)N[C@@H](CC(=O)O)C(=O)N[C@@H](CC(N)=O)C(=O)N[C@@H](CCCCN)C(N)=O)C(C)C)C(C)C` [RIPR_015] (Ac-EEGYKNVKGKCVPDNK-NH2) gave an IC50 [1] of 1.81 µM, an IC50 [2] greater than 100 µM and an IC50 [7] of 9.28 µM. The IC50 [6] was 32 µM, the IC50 [3] was greater than 100 µM and the IC50 [4] was greater than 100 µM.

Work on `CC(C)C[C@H](NC(=O)[C@H](Cc1ccc(O)cc1)NC(=O)[C@H](C)NC(=O)[C@H](Cc1ccc(O)cc1)NC(=O)[C@H](CC(=O)O)NC(=O)[C@H](CC(N)=O)NC(=O)[C@@H](N)CCC(=O)O)C(=O)N[C@@H](CC(N)=O)C(=O)N[C@@H](CCCCN)C(=O)N[C@@H](Cc1ccc(O)cc1)C(=O)O` [RIPR_0059] (H-ENDYAYLNKY-OH) yielded an IC50 [8, 9] of 42200 nM.

For DSCVPNTNEY [RIPR_0976], the “IC50 (nM), in vitro HLA binding affinity” value [8, 10] was “Non-binder”.

LSDTLQLHED [EBA175_0881] was tested, and the “IC50 (nM)” value ([8]; allele A*0101, cell-free competition, fluorescence polarization at 72 hours, Non-binder = no dose-dependent inhibition) was “Non-binder”.

NLFEQLSCY [RH5_338] was tested, and the “IC50 (nM), in vitro HLA binding affinity” value [8, 10] was “Non-Binder”.

In the case of STDPHTNSNN [RIPR_0545], the “IC50 (nM), in vitro HLA binding affinity” value [8, 10] is reported as “Non-binder”.
